Experimental data as given in the supplement of paper PMC11061612.

Columns and labels:
Assay in all cases: Bliss excess, mean over the matrix (fraction); higher = more synergy
[1] = system: CAL-39 (Other Solid Carcinomas)
Outline: (§1)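 Bliss excess equals the observed combination effect minus the expected value EA + EB − EA·EB, where EA and EB are the effects of each agent alone. Combination Emax is the second-highest inhibition within the matrix. Inhibition was scaled from CellTiter-Glo 2.0 luminescence, with 0 set by vehicle wells and 1 by blank wells, after 72 hours of two-drug dosing of cells plated in 1536-well plates.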

[2] = system: P31-FUJ (Acute Myeloid Leukemia)
Outline: as §1

SK-MEL-1 (Melanoma) = system: SK-MEL-1 (Melanoma)
Outline: as §1

[3] = system: HLE (Hepatocellular Carcinoma)
Outline: as §1

[4] = system: SK-UT-1 (Other Solid Carcinomas)
Outline: as §1

CS1 (Chondrosarcoma) = system: CS1 (Chondrosarcoma)
Outline: as §1

[5] = system: MEG-01 (Chronic Myelogenous Leukemia)
Outline: as §1

[6] = system: ETK-1 (Biliary Tract Carcinoma)
Outline: as §1

[7] = system: D-283MED (Other Solid Carcinomas)
Outline: as §1

MCF7 (Breast Carcinoma) = system: MCF7 (Breast Carcinoma)
Outline: as §1

[8] = system: RCC10RGB (Kidney Carcinoma)
Outline: as §1

HCC38 (Breast Carcinoma) = system: HCC38 (Breast Carcinoma)
Outline: as §1

[9] = system: GDM-1 (Acute Myeloid Leukemia)
Outline: as §1

[10] = system: HOP-92 (Non-Small Cell Lung Carcinoma)
Outline: as §1

[11] = system: DOK (Oral Cavity Carcinoma)
Outline: as §1

[12] = system: SNG-M (Endometrial Carcinoma)
Outline: as §1

[13] = system: HCC1143 (Breast Carcinoma)
Outline: as §1

[14] = system: HCC-827 (Lung Adenocarcinoma)
Outline: as §1

[15] = system: NCI-H1688 (Small Cell Lung Carcinoma)
Outline: as §1

Saos-2 (Osteosarcoma) = system: Saos-2 (Osteosarcoma)
Outline: as §1

SMILES | Bliss excess [1] | Bliss excess [2] | Bliss excess (SK-MEL-1 (Melanoma)) | Bliss excess [3] | Bliss excess [4] | Bliss excess (CS1 (Chondrosarcoma)) | Bliss excess [5] | Bliss excess [6] | Bliss excess [7] | Bliss excess (MCF7 (Breast Carcinoma)) | Bliss excess [8] | Bliss excess (HCC38 (Breast Carcinoma)) | Bliss excess [9] | Bliss excess [10] | Bliss excess [11] | Bliss excess [12] | Bliss excess [13] | Bliss excess [14] | Bliss excess [15] | Bliss excess (Saos-2 (Osteosarcoma))
CN(C)CCCOc1ccc(-c2ccc3ncc4c(c3c2)n(C2CCOCC2)c(=O)n4C)cn1 [AZD0156] + C=CCn1c(=O)c2cnc(Nc3ccc(N4CCN(C)CC4)cc3)nc2n1-c1cccc(C(C)(C)O)n1 [AZD1775] (first compound max 1 µM, partner max 1 µM) | -0.0326 | 0.0046 | 0.0161 | -0.026 | -0.0346 | -0.0392 | 0.0032 | -0.0096 | -0.0408 | -0.0338 | -0.0775 | -0.0963 | -0.0566 | -0.0522 | -0.0143 | -0.0562 | -0.0802 | 0.0075 | -0.0033 | -0.0379
CN(CCO)CC[C@H](CSc1ccccc1)Nc1ccc(S(=O)(=O)NC(=O)c2ccc(N3CCC([C@@H](O)c4ccccc4-c4ccc(Cl)cc4)CC3)cc2)cc1S(=O)(=O)C(F)(F)F [AZD4320] + CN(C)CCCOc1ccc(-c2ccc3ncc4c(c3c2)n(C2CCOCC2)c(=O)n4C)cn1 [AZD0156] (first compound max 1 µM, 7x7, partner max 1 µM) | -0.0247 | 0.0814 | -0.0254 | -0.0209 | -0.0284 | -0.0477 | -0.0262 | -0.0509 | -0.0353 | -0.051 | -0.09 | -0.0504 | -0.0248 | -0.0014 | -0.0332 | -0.0467 | 0.0124 | -0.0351 | 0.0127 | -0.0323
CN(CCO)CC[C@H](CSc1ccccc1)Nc1ccc(S(=O)(=O)NC(=O)c2ccc(N3CCC([C@@H](O)c4ccccc4-c4ccc(Cl)cc4)CC3)cc2)cc1S(=O)(=O)C(F)(F)F [AZD4320] + C[C@@H](Nc1cc(F)cc(F)c1)c1cc(C(=O)N(C)C)cc2c(=O)cc(N3CCOCC3)oc12 [AZD8186] (first compound max 1 µM, 7x7, partner max 3 µM) | 0.0175 | 0.019 | -0.0523 | -0.0428 | 0.002 | -0.0411 | 0.0022 | -0.046 | 0.0429 | 0.0057 | -0.0652 | -0.0028 | 0.0375 | 0.0329 | -0.0195 | 0.0018 | 0.0263 | -0.0294 | 0.0259 | -0.0258
CN(CCO)CC[C@H](CSc1ccccc1)Nc1ccc(S(=O)(=O)NC(=O)c2ccc(N3CCC([C@@H](O)c4ccccc4-c4ccc(Cl)cc4)CC3)cc2)cc1S(=O)(=O)C(F)(F)F [AZD4320] + CCN(CCO)CCCOc1ccc2c(Nc3cc(CC(=O)Nc4cccc(F)c4)[nH]n3)ncnc2c1 [AZD2811] (first compound max 1 µM, 7x7, partner max 1 µM) | 0.0236 | -0.0531 | -0.0353 | 0.0338 | 0.0705 | 0.0355 | -0.0205 | -0.0297 | 0.0522 | 0.0189 | -0.0539 | 0.044 | 0.0067 | 0.0573 | 0.0043 | 0.0407 | -0.0091 | -0.0596 | 0.0729 | 0.0831
CC(=O)Nc1cccc(-n2c(=O)n(C3CC3)c(=O)c3c(Nc4ccc(I)cc4F)n(C)c(=O)c(C)c32)c1 [Trametinib] + Cc1nc(-c2cn3c(n2)-c2ccc(-c4cnn(C(C)(C)C(N)=O)c4)cc2OCC3)n(C(C)C)n1 [Taselisib] (first compound max 1 µM, 7x7, partner max 10 µM) | 0.0657 | 0.182 | 0.0238 | -0.0291 | 0.0411 | 0.0483 | 0.0324 | 0.134 | 0.119 | 0.0979 | -0.0186 | 0.0219 | 0.0571 | 0.14 | 0.0767 | 0.102 | 0.0615 | 0.0731 | 0.127 | 0.0402
Cc1c2c(nn1C)CSCc1cc(n(C)n1)CSc1cc(c3ccccc3c1)OCCCc1c(C(=O)O)n(C)c3c-2c(Cl)ccc13 [AZD5991] + Cn1cnc2c(F)c(Nc3ccc(Br)cc3Cl)c(C(=O)NOCCO)cc21 [Selumetinib] (first compound max 1 µM, 7x7, partner max 3 µM) | 0.02 | 0.0399 | -0.01 | -0.0459 | -0.0063 | -0.0136 | 0.139 | -0.005 | -0.0265 | -0.0435 | 0.0528 | -0.0386 | 0.0387 | -0.0332 | 0.0495 | -0.0258 | 0.0552 | -0.0091 | 0.0484 | -0.007
Cc1c2c(nn1C)CSCc1cc(n(C)n1)CSc1cc(c3ccccc3c1)OCCCc1c(C(=O)O)n(C)c3c-2c(Cl)ccc13 [AZD5991] + Cc1cc2ncnn2cc1Nc1ncc2c(n1)n(C1CCOCC1)c(=O)n2C [AZD7648] (first compound max 1 µM, 7x7, partner max 10 µM) | -0.0466 | 0.0055 | -0.0152 | -0.0253 | -0.0252 | -0.0282 | -0.0157 | -0.0466 | -0.0158 | 0.0011 | 0.0033 | -0.0418 | -0.0295 | -0.0332 | 0.0115 | 0.0071 | 0.0124 | -0.0476 | -0.0093 | -0.014
Cn1cnc2c(F)c(Nc3ccc(Br)cc3Cl)c(C(=O)NOCCO)cc21 [Selumetinib] + CCN(CCO)CCCOc1ccc2c(Nc3cc(CC(=O)Nc4cccc(F)c4)[nH]n3)ncnc2c1 [AZD2811] (first compound max 10 µM, 7x7, partner max 1 µM) | -0.0688 | -0.0136 | 0.0031 | -0.0029 | 0.0021 | -0.0043 | -0.0001 | -0.0222 | -0.0022 | -0.0309 | -0.0658 | -0.0748 | -0.0345 | -0.0193 | -0.0864 | -0.0706 | 0.0298 | -0.0711 | -0.0377 | 0.0334
Cc1c2c(nn1C)CSCc1cc(n(C)n1)CSc1cc(c3ccccc3c1)OCCCc1c(C(=O)O)n(C)c3c-2c(Cl)ccc13 [AZD5991] + C[C@@H](Nc1cc(F)cc(F)c1)c1cc(C(=O)N(C)C)cc2c(=O)cc(N3CCOCC3)oc12 [AZD8186] (first compound max 1 µM, 7x7, partner max 3 µM) | 0.0117 | -0.041 | -0.0232 | 0.0254 | -0.0104 | 0.0031 | 0.0019 | -0.0221 | -0.0186 | -0.01 | -0.0349 | 0.011 | 0.0355 | 0.0222 | 0.003 | -0.0242 | 0.0441 | 0.0064 | 0.0171 | -0.0271
CN(C)CCCOc1ccc(-c2ccc3ncc4c(c3c2)n(C2CCOCC2)c(=O)n4C)cn1 [AZD0156] + CCN(CCO)CCCOc1ccc2c(Nc3cc(CC(=O)Nc4cccc(F)c4)[nH]n3)ncnc2c1 [AZD2811] (first compound max 1 µM, 7x7, partner max 1 µM) | 0.0177 | -0.0314 | -0.0356 | 0.0189 | 0.0253 | -0.0074 | -0.0347 | -0.0087 | 0.02 | -0.0114 | -0.039 | -0.0451 | -0.0232 | 0.0242 | -0.0527 | -0.0218 | 0.0372 | -0.0088 | 0.0018 | 0.0088
Cc1cc2ncnn2cc1Nc1ncc2c(n1)n(C1CCOCC1)c(=O)n2C [AZD7648] + C=CCn1c(=O)c2cnc(Nc3ccc(N4CCN(C)CC4)cc3)nc2n1-c1cccc(C(C)(C)O)n1 [AZD1775] (first compound max 10 µM, partner max 1 µM) | -0.0211 | -0.0027 | -0.0561 | -0.0273 | 0.0203 | 0.0046 | -0.0209 | -0.0144 | -0.0959 | 0.0442 | 0.0016 | -0.0124 | -0.0239 | -0.0022 | 0.0331 | 0.0527 | -0.0183 | -0.0044 | -0.0094 | -0.0696
COc1nnc2ccc(N3CCC(c4ccc(OCCN5CCN(C)C(=O)[C@H]5C)cc4)CC3)nn12 [AZD5153] + Cn1cnc2c(F)c(Nc3ccc(Br)cc3Cl)c(C(=O)NOCCO)cc21 [Selumetinib] (first compound max 1 µM, 7x7, partner max 10 µM) | -0.0175 | 0.0339 | 0.0933 | 0.0073 | 0.0089 | 0.01 | -0.0222 | -0.0451 | -0.0211 | -0.0307 | -0.114 | -0.0392 | -0.0266 | 0.0604 | -0.0297 | 0.0042 | 0.0561 | -0.0543 | -0.0216 | -0.0452
COc1cccc(OCCCN)c1-c1cc(Nc2cnc(C#N)cn2)n[nH]1 [Prexasertib] + Cc1cc2ncnn2cc1Nc1ncc2c(n1)n(C1CCOCC1)c(=O)n2C [AZD7648] (first compound max 1 µM, 7x7, partner max 10 µM) | -0.0122 | -0.0255 | -0.0247 | -0.064 | -0.0227 | -0.0285 | -0.0363 | 0.059 | -0.0193 | 0.0688 | -0.075 | -0.0592 | -0.058 | 0.0218 | 0.0019 | -0.0284 | -0.0318 | 0.0186 | 0.0044 | -0.0591
COc1cccc(OCCCN)c1-c1cc(Nc2cnc(C#N)cn2)n[nH]1 [Prexasertib] + C=CCn1c(=O)c2cnc(Nc3ccc(N4CCN(C)CC4)cc3)nc2n1-c1cccc(C(C)(C)O)n1 [AZD1775] (first compound max 1 µM, partner max 1 µM) | 0.0679 | 0.0104 | -0.0084 | 0.0125 | 0.071 | 0.0426 | 0.0016 | 0.0651 | 0.079 | 0.0197 | -0.0202 | 0.0246 | 0.0096 | -0.0601 | 0.108 | 0.0698 | 0.0271 | -0.029 | 0.186 | 0.105
